For data set [1], the system named is cancer cells. As to the kind of experiment: Growth inhibition, MTT/WST assay, antisense backbones. The class given is cell-based. Conditions: maximal kill, 72 hours post treatment. On the procedure:
The efficacies of various nucleic acid backbone chemistries were investigated by delivering […] to cancer cells in organ culture using a collection of nanoparticles that were less than about 50 nm in diameter. Recurrent head neck tumors are typically small (1-2 cm), but based on volumetric scaling between in vitro tumor nests and mouse studies, it is estimated that estimate that a dose of 3 5 mg will be required to locally treat a 2 cm tumor. Various nucleic acid chemistries may reduce this amount by either enhancing binding affinity between the target mRNA and the antisense, using the antisense to bind to DNA instead of RNA, or increasing nuclease resistance (and half-life). […] Biological activity was assayed as growth inhibition using the MTT/WST assay in a 96 well format. Cells were seeded at 20,000 per well, treated 18 hours later, then assayed at 72 hours post treatment. Although the cells are resistant to conventional chemotherapeutic agents, cisplatin activity is shown for reference (black line). […] Additional formats screened but not shown were a phosphodiester/2OME chimeric and the siRNA format.

The subject of data set [2] is metastatic variant of Alva-41 prostate carcinoma cells. As to the kind of experiment: Growth inhibition by nanoencapsulated cisplatin. Type of data set: cell-based, human. Conditions: 5,000 cells per well, 72 hours. Here is the method: Cisplatin was nanoencapsulated into the various candidate tumor binding agents as described previously and nanoparticles were compared for growth inhibition in a metastatic variant of Alva-41 prostate carcinoma cells and Ca-9-22. Formulas were tested in duplicate in two separate experiments. Results are illustrated for the prostate cell line in FIG. 5D. Referring to FIG. 5D, PEX-MMP-1/Cisplatin refers to s50 nanoparticles comprising cisplatin and the Recombinant Pex binding domain of membrane-associated Matrix Metalloproteinase-1 (see Bello et. al, Cancer Research (2001) 61: 8730-36); Tenascin/Cisplatin refers to s50 nanoparticles having tenascin and cisplatin, FN-PHSCN/Cisplatin refers to nanoparticles comprising the FN-PHSCN fragment and cisplatin, Osteonecetin/asCK2 refers to s50 nanoparticles comprising osteonectin and the asCK2 antisense sequence, galectin-3/cisplatin refers to s50 nanoparticles comprising galectin-3 and cisplatin, hyaluronan/cisplatin refers to s50 nanoparticles comprising hyaluronan and cisplatin, and naked cisplatin refers to the addition of free cisplatin to the cell medium. In these experiments cells were plated at 5,000 per well and followed for 72 hours. […] As a comparison, based on a standard male patient, an acceptable in vitro dose of cisplatin would correspond to about 10 μg/ml or 30 μM. […]

Data set [3] concerns SCC-15. As to the kind of experiment: Growth inhibition in chemoresistant head neck cancer cell line. Type of data set: cell-based, human. On the procedure:
Antisense molecules were tested for growth inhibition against the chemoresistant head neck cancer cell line SCC-15 at 10,000 cells per well, the cells being pretreated with tenascin, with results as shown in FIG. 5B-C. Referring to FIG. 5B, PO refers to phosphodiester antisense referred to as asCK2 in Table 9 (SEQ ID NO 1), PO sense refers to phosphodiester sense sequence complementary to asCK2, siRNA refers to a duplex RNA sequence that is screened from the asCk2 sequence, 2OME RNA refers to a nucleic acid of the sequence SEQ ID NO 1 that is all RNA and is al methylated, and PO RNA refers to a proprietary chimeric molecule having the sequence of SEQ ID NO 1 but being a mixture of RNA and DNA and having phosphodiester and 2OME backbone. […] Because of it's capacity for being metabolized, the PO RNA construct within the context of a colloidal formulation will offer advantages in safety for delivery of cytotoxic constructs.
Referring to FIG. 5C, cisplatin TN/x s-50 refers to nanoparticles comprising cisplatin and a 1:1 w/w ratio of tenascin:dextran. Tn s-50 refers to nanoparticles comprising cisplatin and tenascin, asCK2 TN s-50 refers to nanoparticles comprising tenascin and asCK2 antisense of sequence SEQ ID NO 1, and free cisplatin refers to cisplatin added to the cell medium.

Data set [4] concerns hormone-insensitive PC3 cells. As to the kind of experiment: Growth inhibition in prostate carcinoma cells. The class given is cell-based. To be noted: PC3, 5,000 cells per untreated well. Here is the method:
(§1) In these studies, cells were seeded at 5,000 cells per untreated well.

Data set [5] relates to hormone-sensitive Alva-41 prostate carcinoma cells. As to the kind of experiment: Growth inhibition in prostate carcinoma cells. The class given is cell-based, human. Conditions: Alva-41, 5,000 cells per untreated well. On the procedure:
as §1

For orientation: pIC50 means −log10 of the IC50, conventionally taken in molar units.

pIC50: −log10 of the molar value.

On to “2-0 methyl RNA format: nucleic acid of the sequence SEQ ID NO 1 that is all RNA and methylated, in s50 nanoparticles (GTCCCGACATGTCAGACAGG; all 2'-O-methyl, backbone and T or U not given here; formulated in s50 nanoparticles)”, for which the “complete kill achieved in vitro” value in data set [1] is recorded as “capacity for complete kill”.

Molecule `N.N.[Cl][Pt][Cl]` [free cisplatin, cisplatin, reference compound] showed a pIC50 in data set [2] of 4.00. In addition, in data set [3] (SCC-15, FIG. 5C), the “overall in vitro kill” value is listed as “zero”.

Take “PO RNA: chimeric molecule with sequence of SEQ ID NO 1, mixture of RNA and DNA, phosphodiester and 2OME backbone (antisense GTCCCGACATGTCAGACAGG; RNA/DNA chimera, phosphodiester and 2'-O-methyl, chemistry not fully specified)”: the pIC50 in data set [3] (SCC-15, 10,000 cells per well, pretreated with tenascin) was 5.52.

With “SEQ ID NO 1: GTCCCGACATGTCAGACAGG; phosphodiester antisense 20mer to CK2α translation start site (antisense GTCCCGACATGTCAGACAGG; all phosphodiester, sugars by position and methylation of C not given here)”, the figures for the pIC50 in data set [4] and in data set [5] were 4.40 and 4.82, respectively.

These data come from patent US20080220072A1, “BIOLOGIC MODULATIONS WITH NANOPARTICLES” (priority 2002, published 2008).
